The source of these data is US8937068B2, “Pyridopyrazine derivatives and their use” (Zentaris GmbH, priority 2005, dated 2015).

Each structure is given as a SMILES string. Some results are limits rather than exact numbers.

One series has as its system Jnk1 + Jnk2. Kind of series: Cell-free kinase assay (ALPHA technology), Jnk1 + Jnk2. The series is classed as biochemical, human. The settings on record: 10 μM ATP. The procedure:
(§1) The inhibitory effect of the compounds according to the invention was tested on various serine/threonine, tyrosine and lipid kinases in enzymatic assays. Recombinant human kinases such as, for example, Erk2, PI3Kalpha, -beta, -gamma, -delta, p38alpha, p38gamma, Jnk1, Jnk2 and others were used in this case, partly as full-length kinases, partly as shortened fragments, but at least consisting of the functional kinase domains. The commercial kinase proteins (Proqinase, Upstate) were used as recombinant fusion proteins with GST (glutathion-S-transferase) or His-Tag. Depending on the type of substrate, the various kinase reactions were quantified by means of suitable ALPHA™ beads (Perkin-Elmer).
(§2) The substance testing is described in detail hereinafter for the Erk assay.
(§3) a) MAPK-ALPHAs (e.g. Erk2): the test substance, 0.625 ng Erk2 (#14-173, Upstate), 10 μM ATP and 15 nM biotinylated MBP (myelin basic protein) substrate were incubated on a 384-well Optiplate (Perkin-Elmer) in a volume of 15 μl for 1 h in 25 mM Tris, 10 mM MgCl2, 0.1% Tween-20, 100 μM NaVO4, 2 mM DTT at pH 7.5. The kinase reaction was then stopped by adding 10 μl of the ALPHA bead mixes (10 μg/ml, #6760617/Perkin-Elmer) pre-incubated with anti-phospho MBP antibody (320 pM, #05-429/Upstate) in 25 mM Tris, 200 mM NaCl, 110 nM EDTA and 0.3% BSA and left to stand overnight. b) PI3K-ALPHAs (e.g. PI3Kalpha): the test substance, 1 ng PI3Kalpha (#14-602, Upstate), 100 μM ATP and 20 μM PIP2 substrate (#P4508, Echelon) were incubated on a 384-well Optiplate (Perkin-Elmer) for 1 h in 50 mM Hepes, 50 mM NaCl, 5 mM MgCl2, 0.05% Chaps, 5 mM DTT at pH 7.4. The kinase reaction was then stopped by adding ALPHA bead mixes (10 μg/ml, #6760603/Perkin-Elmer) pre-incubated with 1 nM GST:Grp1 fusion protein (Upstate) and 15 nM biotinylated PIP3 (#C-39B6/Echelon) in 50 mM Hepes, 50 mM NaCl, 50 mM EDTA and 0.1% BSA and left to stand overnight.
(§4) The fluorescence was detected the following morning in a Fusion™^aα-system (Perkin-Elmer).
(§5) The %-inhibition values per substance concentration were calculated by means of the following formula from the raw data determined in the Fusion™ ? :
(§6) Eight determinations were made for each control and two for the substance samples. The 0% control either contains no ATP or no substrate, the 100% control (fully active kinase) contains no test substance. The IC50 values were determined using GraphPadPrism.

Another series has as its target PI3Kalpha (Homo sapiens (Human), UniProt P42336). Kind of series: Cell-free kinase assay (ALPHA technology), PI3Kalpha. In kind it is biochemical. The note with it: 100 μM ATP. The procedure:
as §1, §2, §3, §4, §5, §6

A further series deals with Erk2 (Homo sapiens, UniProt P28482). As to the kind of experiment: Cell-free kinase assay (ALPHA technology), Erk2. In kind it is biochemical. The settings on record: 10 μM ATP. The procedure: The inhibitory effect of the compounds according to the invention was tested on various serine/threonine, tyrosine and lipid kinases in enzymatic assays. […] The commercial kinase proteins (Proqinase, Upstate) were used as recombinant fusion proteins with GST (glutathion-S-transferase) or His-Tag. Depending on the type of substrate, the various kinase reactions were quantified by means of suitable ALPHA™ beads (Perkin-Elmer). The substance testing is described in detail hereinafter for the Erk assay. […] a) MAPK-ALPHAs (e.g. […] The kinase reaction was then stopped by adding ALPHA bead mixes (10 μg/ml, #6760603/Perkin-Elmer) pre-incubated with 1 nM GST:Grp1 fusion protein (Upstate) and 15 nM biotinylated PIP3 (#C-39B6/Echelon) in 50 mM Hepes, 50 mM NaCl, 50 mM EDTA and 0.1% BSA and left to stand overnight. The fluorescence was detected the following morning in a Fusion™^aα-system (Perkin-Elmer). […] Eight determinations were made for each control and two for the substance samples. […] The IC50 values were determined using GraphPadPrism.

A further series addresses p38alpha (Homo sapiens (Human), UniProt Q16539). Kind of series: Cell-free kinase assay (ALPHA technology), p38alpha. The note with it: 10 μM ATP. In kind it is biochemical. The procedure: as §1, §2, §3, §4, §5, §6

Chain of p38alpha (Q16539 whole entry): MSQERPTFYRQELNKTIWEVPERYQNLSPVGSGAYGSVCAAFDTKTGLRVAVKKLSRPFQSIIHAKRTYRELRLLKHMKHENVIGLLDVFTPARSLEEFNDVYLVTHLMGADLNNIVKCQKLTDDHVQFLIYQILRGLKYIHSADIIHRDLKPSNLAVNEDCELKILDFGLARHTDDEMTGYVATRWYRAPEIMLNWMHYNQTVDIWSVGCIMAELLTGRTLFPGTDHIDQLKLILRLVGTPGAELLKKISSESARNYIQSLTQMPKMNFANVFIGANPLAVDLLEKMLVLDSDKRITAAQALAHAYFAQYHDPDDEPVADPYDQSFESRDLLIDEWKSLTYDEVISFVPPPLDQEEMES
Chain of PI3Kalpha (P42336 whole entry): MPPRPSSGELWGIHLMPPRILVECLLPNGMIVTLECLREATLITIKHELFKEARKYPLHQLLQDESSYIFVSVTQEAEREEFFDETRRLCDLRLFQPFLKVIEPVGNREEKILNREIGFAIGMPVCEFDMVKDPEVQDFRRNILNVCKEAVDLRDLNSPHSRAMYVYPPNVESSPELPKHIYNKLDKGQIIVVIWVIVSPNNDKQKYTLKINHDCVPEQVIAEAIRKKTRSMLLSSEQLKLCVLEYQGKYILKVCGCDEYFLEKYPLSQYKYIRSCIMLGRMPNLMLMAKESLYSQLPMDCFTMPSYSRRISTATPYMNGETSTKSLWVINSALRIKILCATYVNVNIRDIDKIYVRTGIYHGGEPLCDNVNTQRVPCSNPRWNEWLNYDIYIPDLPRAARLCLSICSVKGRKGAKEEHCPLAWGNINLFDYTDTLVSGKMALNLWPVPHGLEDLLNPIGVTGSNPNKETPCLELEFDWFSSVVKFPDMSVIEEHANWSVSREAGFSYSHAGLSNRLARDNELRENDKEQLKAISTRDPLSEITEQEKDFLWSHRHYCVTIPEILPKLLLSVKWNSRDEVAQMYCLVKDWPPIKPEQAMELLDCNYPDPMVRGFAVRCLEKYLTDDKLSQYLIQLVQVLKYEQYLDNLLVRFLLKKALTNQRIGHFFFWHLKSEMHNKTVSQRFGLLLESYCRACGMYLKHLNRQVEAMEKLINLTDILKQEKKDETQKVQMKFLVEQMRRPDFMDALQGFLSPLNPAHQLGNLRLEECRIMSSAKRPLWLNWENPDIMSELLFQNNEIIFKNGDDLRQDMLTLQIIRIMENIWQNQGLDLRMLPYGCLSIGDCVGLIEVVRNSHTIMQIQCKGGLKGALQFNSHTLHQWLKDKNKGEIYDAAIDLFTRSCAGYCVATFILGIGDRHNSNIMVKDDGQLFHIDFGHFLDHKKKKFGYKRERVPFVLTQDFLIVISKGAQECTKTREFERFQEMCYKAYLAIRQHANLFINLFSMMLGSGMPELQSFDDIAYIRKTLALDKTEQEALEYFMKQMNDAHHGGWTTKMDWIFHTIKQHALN
Chain of PI3Kalpha (P27986 whole entry partner): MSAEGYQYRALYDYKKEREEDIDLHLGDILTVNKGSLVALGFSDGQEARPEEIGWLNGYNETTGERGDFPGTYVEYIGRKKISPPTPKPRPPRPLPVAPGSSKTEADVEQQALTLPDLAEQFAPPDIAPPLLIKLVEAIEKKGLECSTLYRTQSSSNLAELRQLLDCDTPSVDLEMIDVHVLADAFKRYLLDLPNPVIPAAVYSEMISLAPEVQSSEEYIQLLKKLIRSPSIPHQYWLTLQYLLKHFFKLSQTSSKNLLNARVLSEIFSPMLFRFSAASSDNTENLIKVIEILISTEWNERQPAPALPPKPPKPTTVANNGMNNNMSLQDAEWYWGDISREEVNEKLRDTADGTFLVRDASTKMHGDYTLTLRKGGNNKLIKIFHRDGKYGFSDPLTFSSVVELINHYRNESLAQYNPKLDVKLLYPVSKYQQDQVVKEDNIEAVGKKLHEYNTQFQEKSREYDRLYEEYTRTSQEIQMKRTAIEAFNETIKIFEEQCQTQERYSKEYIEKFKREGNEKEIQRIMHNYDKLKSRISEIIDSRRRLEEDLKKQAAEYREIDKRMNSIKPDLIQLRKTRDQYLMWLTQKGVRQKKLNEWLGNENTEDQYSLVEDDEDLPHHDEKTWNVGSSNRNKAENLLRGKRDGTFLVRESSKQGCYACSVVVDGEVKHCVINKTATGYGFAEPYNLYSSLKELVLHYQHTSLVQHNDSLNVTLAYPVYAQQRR
Chain of Erk2 (P28482 2-360 limits assumed): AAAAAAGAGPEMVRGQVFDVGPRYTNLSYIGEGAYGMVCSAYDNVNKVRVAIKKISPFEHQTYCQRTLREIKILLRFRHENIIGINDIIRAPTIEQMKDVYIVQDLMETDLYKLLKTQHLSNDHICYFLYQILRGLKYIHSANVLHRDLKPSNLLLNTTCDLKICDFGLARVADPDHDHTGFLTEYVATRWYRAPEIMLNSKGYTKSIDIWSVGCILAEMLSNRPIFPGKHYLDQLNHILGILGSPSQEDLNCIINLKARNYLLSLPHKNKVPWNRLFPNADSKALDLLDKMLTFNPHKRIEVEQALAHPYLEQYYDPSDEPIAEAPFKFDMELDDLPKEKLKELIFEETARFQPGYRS

By melting point is commonly meant the temperature, or range, at which the solid turns liquid. Turning to `CNC(=S)Nc1ccc2ncc(-c3ccc([N+](=O)[O-])cc3)nc2n1` [Compound 22, 1-methyl-3-[3-(4-nitro-phenyl)-pyrido[2,3-b]pyrazin-6-yl]-thiourea], the melting point turned out to be 270 °C.

For `C=CCNC(=S)Nc1ccc2ncc(-c3ccc([N+](=O)[O-])cc3)nc2n1` [Compound 24, 1-allyl-3-[3-(4-nitro-phenyl)-pyrido[2,3-b]pyrazin-6-yl]-thiourea], the melting point was 244 °C (dec.).

`S=C(Nc1ccc2ncc(-c3ccccc3)nc2n1)NC1CCCCC1` [Compound 18, 1-cyclohexyl-3-(3-phenyl-pyrido[2,3-b]pyrazin-6-yl)-thiourea] yielded a melting point of 230 to 232 °C.

With `CC(C)(C)NC(=S)Nc1ccc2ncc(-c3ccccc3)nc2n1` [Compound 10, 1-tert.butyl-3-(3-phenyl-pyrido[2,3-b]pyrazin-6-yl)-thiourea], the melting point was 227 °C (dec.).

Molecule `O=C(Nc1ccc(Cl)c(C(F)(F)F)c1)Nc1ccc2ncc(-c3ccccc3)nc2n1` [Compound 16, 1-(4-chloro-3-trifluoromethyl-phenyl)-3-(3-phenyl-pyrido[2,3-b]pyrazin-6-yl)-urea] yielded a melting point of 250 °C.

As a reminder, the IC50 is the point on the concentration scale where inhibition reaches its midpoint. In the case of `CCNC(=O)Nc1ccc2ncc(Nc3ccc(C)cn3)nc2n1` [Compound 165, 1-Ethyl-3-[3-(5-methyl-pyridin-2-yl-amino)-pyrido[2,3-b]pyrazin-6-yl]-urea], the IC50 with Jnk1 + Jnk2 was 27.1 µM; against PI3Kalpha, 1.2 µM; against Erk2, 19.4 µM; at p38alpha it was > 100 µM.

As to `COc1cc(-c2cnc3ccc(NC(=O)NCCCCO)nc3n2)ccc1O` [Compound 168, 1-(4-Hydroxy-butyl)-3-[3-(4-hydroxy-3-methoxy-phenyl)-pyrido[2,3-b]pyrazin-6-yl]-urea], the IC50 in the series on Jnk1 + Jnk2 is 2.5 µM; at PI3Kalpha, 0.612 µM; against Erk2, 0.15 µM; at p38alpha, > 100 µM.

For `CCNC(=S)Nc1ccc2ncc(-c3ccc(O)cc3)nc2n1` [Compound 149, 1-Ethyl-3-[3-(4-hydroxy-phenyl)-pyrido[2,3-b]pyrazin-6-yl]-thiourea], the concentration for half-maximal inhibition (IC50) is > 31.6 µM with Jnk1 + Jnk2, 3.5 µM at PI3Kalpha, 0.954 µM against Erk2 and > 100 µM against p38alpha.

For the molecule `CCNC(=O)Nc1ccc2ncc(-c3ccc(C#N)s3)nc2n1` [Compound 174, 1-[3-(5-Cyano-thiophen-2-yl)-pyrido[2,3-b]pyrazin-6-yl]-3-ethyl-urea], the IC50 is 4.6 µM with Jnk1 + Jnk2, 3 µM against PI3Kalpha, 4.9 µM against Erk2 and > 31.6 µM against p38alpha.

With `CCNC(=O)Nc1ccc2ncc(Nc3ccc(C)c(O)c3)nc2n1` [Compound 188, 1-Ethyl-3-[3-(3-hydroxy-4-methyl-phenylamino)-pyrido[2,3-b]pyrazin-6-yl]-urea], the IC50 in the series on Jnk1 + Jnk2 is > 31.6 µM; at PI3Kalpha, 2.8 µM; at Erk2 it was > 100 µM; at p38alpha it was > 100 µM.

As to `CCNC(=O)Nc1ccc2ncc(Nc3cnccn3)nc2n1` [Compound 181, 1-Ethyl-3-[3-(pyrazin-2-ylamino)-pyrido[2,3-b]pyrazin-6-yl]-urea], the IC50 in the series on Jnk1 + Jnk2 was 4.3 µM; on PI3Kalpha, 0.739 µM; on Erk2 it was 1.7 µM; at p38alpha, > 100 µM.

Regarding `CCNC(=O)Nc1ccc2ncc(Nc3cccc(OC(C)C)c3)nc2n1` [Compound 182, 1-Ethyl-3-[3-(3-isopropoxy-phenylamino)-pyrido[2,3-b]pyrazin-6-yl]-urea], the IC50 in the series on Jnk1 + Jnk2 is 21 µM; on PI3Kalpha it was 1.1 µM; at Erk2 it was > 31.6 µM; at p38alpha, > 100 µM.

`CCNC(=O)Nc1ccc2ncc(Nc3ccccc3C)nc2n1` [Compound 160, 1-Ethyl-3-(3-o-tolylamino-pyrido[2,3-b]-pyrazin-6-yl)-urea]: the IC50 is > 31.6 µM in the series on Jnk1 + Jnk2, 2.9 µM against PI3Kalpha, 5.8 µM at Erk2 and > 31.6 µM against p38alpha.

In the case of `CCNC(=O)Nc1ccc2ncc(Nc3ccc4ccccc4c3)nc2n1` [Compound 178, 1-Ethyl-3-[3-(naphthalin-2-ylamino)-pyrido[2,3-b]pyrazin-6-yl]-urea], the half-inhibitory concentration (IC50) was 2.3 µM in the series on Jnk1 + Jnk2, 0.164 µM against PI3Kalpha, > 100 µM at Erk2 and > 31.6 µM against p38alpha.

With `CCNC(=O)Nc1ccc2ncc(-c3cccc(C(=O)O)c3)nc2n1` [Compound 152, 3-[6-(3-Ethyl-ureido)-pyrido[2,3-b]pyrazin-3-yl]-benzoic acid], the half-maximal inhibitory concentration (IC50) is 12.1 µM in the series with Jnk1 + Jnk2, 5.3 µM against PI3Kalpha, 1.9 µM at Erk2 and > 100 µM on p38alpha.

As to `CCNC(=O)Nc1ccc2ncc(Nc3ccc(OC)c(Cl)c3)nc2n1` [Compound 177, 1-[3-(3-Chloro-4-methoxy-phenylamino)-pyrido[2,3-b]pyrazin-6-yl]-3-ethyl-urea], the 50% inhibitory concentration (IC50) was 3.9 µM in the series on Jnk1 + Jnk2, 0.295 µM against PI3Kalpha, > 31.6 µM at Erk2 and > 100 µM on p38alpha.

Take `CCNC(=O)Nc1ccc2ncc(Nc3ccc(CC)cc3)nc2n1` [Compound 162, 1-Ethyl-3-[3-(4-ethyl-phenylamino)-pyrido[2,3-b]pyrazin-6-yl]-urea]: the IC50 in the series with Jnk1 + Jnk2 is > 31.6 µM; against PI3Kalpha, 0.19 µM; against Erk2, > 100 µM; against p38alpha, > 100 µM.

For the molecule `CCNC(=O)Nc1ccc2ncc(-c3cccc(O)c3)nc2n1` [Compound 151, 1-Ethyl-3-[3-(3-hydroxy-phenyl)-pyrido[2,3-b]pyrazin-6-yl]-urea], the 50% inhibitory concentration (IC50) with Jnk1 + Jnk2 is 2.9 µM; on PI3Kalpha it was 1.5 µM; against Erk2 it was 0.104 µM; against p38alpha, > 100 µM.

For the molecule `CCNC(=O)Nc1ccc2ncc(-c3ccc(O)cc3)nc2n1` [Compound 43, 1-Ethyl-3-[3-(4-hydroxy-phenyl)-pyrido[2,3-b]pyrazin-6-yl]-urea], the IC50 was 5.5 µM in the series with Jnk1 + Jnk2, 6.2 µM on PI3Kalpha, 0.006 µM against Erk2 and > 100 µM on p38alpha.

Consider `CCNC(=O)Nc1ccc2ncc(Nc3cc(C(=O)O)cc(C(F)(F)F)c3)nc2n1` [Compound 189, 3-[6-(3-Ethyl-ureido)-pyrido[2,3-b]-pyrazin-3-ylamino]-5-trifluoromethyl-benzoic acid], for which the concentration for half-maximal inhibition (IC50) is 6.2 µM in the series with Jnk1 + Jnk2, 0.237 µM at PI3Kalpha, 20.3 µM against Erk2 and > 100 µM against p38alpha.

With `CCNC(=O)Nc1ccc2ncc(-c3cccc(C(N)=O)c3)nc2n1` [Compound 155, 3-[6-(3-Ethyl-ureido)-pyrido[2,3-b]-pyrazin-3-yl]-benzamide], the IC50 in the series with Jnk1 + Jnk2 is 7.8 µM; against PI3Kalpha it was 5 µM; against Erk2, > 100 µM; on p38alpha, > 100 µM.

Take `CNC(=S)Nc1ccc2ncc(-c3ccc(N)cc3)nc2n1` [Compound 44, 1-[3-(4-Amino-phenyl)-pyrido[2,3-b]pyrazin-6-yl]-3-methyl-thiourea]: the concentration for half-maximal inhibition (IC50) in the series on Jnk1 + Jnk2 was 1.5 µM; on PI3Kalpha, 3.8 µM; at Erk2, 2.5 µM; at p38alpha, > 100 µM.

Take `CCNC(=O)Nc1ccc2ncc(Nc3ccc(F)cc3)nc2n1` [Compound 167, 1-Ethyl-3-[3-(4-fluoro-phenylamino)-pyrido[2,3-b]pyrazin-6-yl]-urea]: the concentration for half-maximal inhibition (IC50) was 27.3 µM with Jnk1 + Jnk2, 1.1 µM on PI3Kalpha, > 100 µM against Erk2 and > 100 µM at p38alpha.
